The record followed here is patent US20200247815A1, “PYRAZOLYL-CONTAINING TRICYCLIC DERIVATIVE, PREPARATION METHOD THEREFOR AND USE THEREOF” (Jiangsu Hansoh Pharmaceutical Group Co., Ltd., priority 2017, published 2020).

Molecules are shown by their SMILES.

One assay addresses T1, ERK-1 kinase (Homo sapiens, UniProt P27361).
T1 construct: purchased Invitrogen PV3311
Description: Inhibition of ERK-1 kinase activity (LANCE Ultra TR-FRET). The following applies: ERK1 enzyme 0.4 nM, ATP 38.15 μM. It counts as biochemical. On the procedure:
(§1) The object of this test example is to determine the inhibition effect of the compound on ERK-1 kinase activity. In vitro ERK-1 kinase analysis was carried out by using LANCE Ultra (Perkin Elmer) method. The reaction (reaction system 10 μL) was conducted by adding 2.5 μL of test compound/DMSO (final 4%, V/V, diluted to 10 concentrations (400 nM to 0.02 nM) using a 1:3 dilution scheme), 5 μL of a mixed solution of ERK1 enzyme (Invitrogen, # PV3311, final concentration: 0.4 nM) and substrate Ulight-MBP peptide (Perkin Elmer, # TRF0109-M, final concentration: 0.5 μM) formulated with a kinase buffer (50 mM Hepes pH 7.4, 10 mM MgCl2, 1 mM EGTA, 0.01% Triton X-100, 2 mM DTT) and 2.5 μL of ATP solution (Invitrogen, # PV3227, final concentration: 38.15 μM) formulated with the same buffer successively to a 384-well plate (Perkin Elmer OPTIPLATE™) and mixing well. The reaction mixture was incubated at room temperature for 60 minutes. The reaction was stopped by adding 1× LANCE Detection buffer (PerkinElmer # CR97-100) diluted with ultra-pure water, mM EDTA (Invitrogen #15575038) and 1 nM Eu-anti-p-MBP (PerkinElmer # TRF0201-M) antibody in 10 μL/well. The plate was incubated at room temperature for 60 minutes. Excitation reading was performed on Synergy H1 Hybird Reader, H1MFD (Biotek) with an excitation wavelength of 320 nm. TR-FRET rate was calculated by dividing the acceptor emission signal (signal value at 665 nM) by the Eu donor emission signal (signal value at 615 nM). The inhibition TR-FRET rate of the well treated by the compound was calculated relative to the Max signal (DMSO control) and Min signal (no enzyme added) control wells on the plate {% inhibition rate=100−[(test compound−Min average)]/(Max average−Min average)×100}. The 10 concentrations of the compound after 4-fold dilution of the reaction system were 100 nM to 0.005 nM. Abs_IC50 value was calculated by using GraphPad prism fits percentage inhibition rate and ten-point concentration data in a 4-parameter non-linear logic formula.
On the technique in general: In TR-FRET formats the signal depends on donor and acceptor labels being close together.

In another assay the target is T2, ERK-2 kinase (Homo sapiens, UniProt P28482).
T2 construct: purchased Invitrogen PV3313
T2 sequence (P28482 whole entry): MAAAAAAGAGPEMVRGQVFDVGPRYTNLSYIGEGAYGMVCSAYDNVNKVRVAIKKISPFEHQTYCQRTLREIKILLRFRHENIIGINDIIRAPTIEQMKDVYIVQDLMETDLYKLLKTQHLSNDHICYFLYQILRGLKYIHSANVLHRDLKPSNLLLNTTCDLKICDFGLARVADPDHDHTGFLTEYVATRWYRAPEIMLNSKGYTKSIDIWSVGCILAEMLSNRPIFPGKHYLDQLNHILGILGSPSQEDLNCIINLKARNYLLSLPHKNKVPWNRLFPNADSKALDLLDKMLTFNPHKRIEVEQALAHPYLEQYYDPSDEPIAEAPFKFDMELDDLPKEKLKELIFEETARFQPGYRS
Kind of assay: Inhibition of ERK-2 kinase activity (LANCE Ultra TR-FRET). The following applies: ERK-2 enzyme 0.08 nM, ATP 38.15 μM. The assay is classed as biochemical. On the procedure:
as §1, with “ERK-2” for “ERK-1”, “ERK-2” for “ERK1”, “PV3313,” for “PV3311,”, “0.08” for “0.4”, “EGTA” for “EGTA,”, “IX” for “1×”

T1 sequence (P27361 whole entry): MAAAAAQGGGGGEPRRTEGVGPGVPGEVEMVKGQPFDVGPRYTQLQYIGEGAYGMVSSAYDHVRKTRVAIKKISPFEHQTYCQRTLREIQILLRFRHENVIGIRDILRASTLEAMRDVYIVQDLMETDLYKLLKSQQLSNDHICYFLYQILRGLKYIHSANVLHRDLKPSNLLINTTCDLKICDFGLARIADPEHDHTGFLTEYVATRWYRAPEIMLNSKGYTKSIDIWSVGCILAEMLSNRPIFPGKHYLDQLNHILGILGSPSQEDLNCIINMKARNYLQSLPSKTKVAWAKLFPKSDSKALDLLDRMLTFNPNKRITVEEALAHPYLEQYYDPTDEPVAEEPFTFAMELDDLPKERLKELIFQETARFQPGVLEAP

What is called IC50 is the midpoint of a concentration-inhibition curve. `COc1ccc(CNC(=O)c2nc3cc4c(-c5ccncc5)n[nH]c4cc3[nH]2)cc1OC` [Example 3, N-(3,4-dimethoxybenzyl)-3-(pyridin-4-yl)-1,7-dihydroimidazo[4,5-f]indazole-6-carboxamide]: the values for the IC50 on ERK-1 kinase and on ERK-2 kinase were 5.48 nM and 3.95 nM, respectively.

As for `Cc1ccc([C@@H](C)NC(=O)c2nc3cc4c(-c5ccncc5)n[nH]c4cc3[nH]2)cc1` [Example 6, (R)-3-(pyridin-4-yl)-N-(1-(p-tolyl)ethyl)-1,7-dihydroimidazo[4,5-f]indazole-6-carboxamide], the IC50 at ERK-1 kinase was 2.09 nM; at ERK-2 kinase, 0.84 nM.

Take `C[C@@H](NC(=O)c1nc2cc3c(-c4ccncc4)n[nH]c3cc2[nH]1)c1ccccn1` [Example 9, (R)—N-(1-(pyridin-2-yl)ethyl)-3-(pyridin-4-yl)-1,7-dihydroimidazo[4,5-f]indazole-6-carboxamide]: the IC50 at ERK-1 kinase amounted to 8.6 nM; at ERK-2 kinase, 3.13 nM.

As to `CC(NC(=O)c1nc2cc3c(-c4ccncc4)n[nH]c3cc2[nH]1)c1ccccc1` (stereo not drawn) [Example 11, N-(1-phenylethyl)-3-(pyridin-4-yl)-1,7-dihydroimidazo[4,5-f]indazole-6-carboxamide], the IC50 at ERK-1 kinase is 0.64 nM; at ERK-2 kinase, 0.29 nM.

As for `COC[C@@H](NC(=O)c1nc2cc3c(-c4ccncc4)n[nH]c3cc2[nH]1)c1ccccc1` [Example 13, (S)—N-(2-methoxy-1-phenylethyl)-3-(pyridin-4-yl)-1,7-dihydroimidazo[4,5-f]indazole-6-carboxamide], the 50% inhibitory concentration (IC50) was determined as 3.01 nM on ERK-1 kinase and 1.39 nM at ERK-2 kinase.

In the case of `C[C@@H](NC(=O)c1nc2cc3c(-c4ccncc4)n[nH]c3cc2[nH]1)c1ccc([N+](=O)[O-])cc1` [Example 14, (R)—N-(1-(4-nitrophenyl)ethyl)-3-(pyridin-4-yl)-1,7-dihydroimidazo[4,5-f]indazole-6-carboxamide], the IC50 worked out at 9.48 nM at ERK-1 kinase and 5.07 nM on ERK-2 kinase.

Turning to `C[C@@H](NC(=O)c1nc2cc3c(-c4ccncc4)n[nH]c3cc2[nH]1)c1ccc(Br)cc1` [Example 15, (R)—N-(1-(4-bromophenyl)ethyl)-3-(pyridin-4-yl)-1,7-dihydroimidazo[4,5-f]indazole-6-carboxamide], the IC50 at ERK-1 kinase amounted to 6.41 nM; at ERK-2 kinase, 2.72 nM.

Turning to `C[C@@H](NC(=O)c1nc2cc3c(-c4ccncc4)n[nH]c3cc2[nH]1)c1cccc(C(F)(F)F)c1` [Example 16, (R)-3-(pyridin-4-yl)-N-(1-(3-(trifluoromethyl)phenyl)ethyl)-1,7-dihydroimidazo[4,5-f]indazole-6-carboxamide], the IC50 at ERK-1 kinase was 1 nM; on ERK-2 kinase, 0.73 nM.

As to `CC[C@@H](NC(=O)c1nc2cc3c(-c4ccncc4)n[nH]c3cc2[nH]1)c1ccccc1` [Example 17, (R)—N-(1-phenylpropyl)-3-(pyridin-4-yl)-1,7-dihydroimidazo[4,5-f]indazole-6-carboxamide], the IC50 on ERK-1 kinase came out at 2.34 nM; on ERK-2 kinase it was 1.15 nM.

As to `O=C(N[C@H](CO)c1ccccc1)c1nc2cc3c(-c4ccncc4)n[nH]c3cc2[nH]1` [Example 20, (S)—N-(2-hydroxy-1-phenylethyl)-3-(pyridin-4-yl)-1,7-dihydroimidazo[4,5-f]indazole-6-carboxamide], the IC50 on ERK-1 kinase is 0.22 nM; at ERK-2 kinase, 0.06 nM.

With `N#C[C@@H](NC(=O)c1nc2cc3c(-c4ccncc4)n[nH]c3cc2[nH]1)c1ccccc1` [Example 34, (S)—N-(cyano(phenyl)methyl)-3-(pyridin-4-yl)-1,7-dihydroimidazo[4,5-f]indazole-6-carboxamide], the figures for the IC50 at ERK-1 kinase and at ERK-2 kinase were 0.79 nM and 0.34 nM, respectively.

For `C[C@@H](OC(=O)c1nc2cc3c(-c4ccncc4)n[nH]c3cc2[nH]1)c1ccccc1` [Example 35, (R)-1-phenylethyl 3-(pyridin-4-yl)-1,7-dihydroimidazo[4,5-f]indazole-6-carboxylate], the IC50 at ERK-1 kinase was 1.54 nM; at ERK-2 kinase, 0.75 nM.

Regarding `C[C@@H](NC(=O)c1nc2cc3c(-c4ccnc(F)c4)n[nH]c3cc2[nH]1)c1ccccc1` [Example 37, (R)-3-(2-fluoropyridin-4-yl)-N-(1-phenylethyl)-1,7-dihydroimidazo[4,5-f]indazole-6-carboxamide], the figures for the IC50 on ERK-1 kinase and at ERK-2 kinase were 0.52 nM and 0.18 nM, respectively.

With `Cc1cccc(C(C)NC(=O)c2nc3cc4c(-c5ccncc5)n[nH]c4cc3[nH]2)n1` (stereo not drawn) [Example 44, N-(1-(6-methylpyridin-2-yl)ethyl)-3-(pyridin-4-yl)-1,7-dihydroimidazo[4,5-f]indazole-6-carboxamide], the IC50 at ERK-1 kinase worked out at 0.95 nM; on ERK-2 kinase, 0.66 nM.

In the case of `C[C@@H](NC(=O)c1nc2cc3c(-c4ccncc4)n[nH]c3c(Cl)c2[nH]1)c1ccccc1` [Example 46, (R)-8-chloro-N-(1-phenylethyl)-3-(pyridin-4-yl)-1,7-dihydroimidazo[4,5-f]indazole-6-carboxamide], the IC50 at ERK-1 kinase came to 3.3 nM; on ERK-2 kinase, 1.7 nM.

`Cc1cccc([C@@H](C)NC(=O)c2nc3cc4c(-c5ccncc5)n[nH]c4cc3[nH]2)n1` [Example 47, (R)—N-(1-(6-methylpyridin-2-yl)ethyl)-3-(pyridin-4-yl)-1,7-dihydroimidazo[4,5-f]indazole-6-carboxamide]: the figures for the 50% inhibitory concentration (IC50) on ERK-1 kinase and at ERK-2 kinase were 0.49 nM and 0.17 nM, respectively.

As to `CC(NC(=O)c1nc2cc3c(-c4ccncc4)n[nH]c3cc2[nH]1)c1cnccn1` (stereo not drawn) [Example 51, N-(1-(pyrazin-2-yl)ethyl)-3-(pyridin-4-yl)-1,7-dihydroimidazo[4,5-f]indazole-6-carboxamide], the half-maximal inhibitory concentration (IC50) on ERK-1 kinase worked out at 2.42 nM; at ERK-2 kinase, 0.91 nM.

Take `C[C@@H](NC(=O)c1nc2cc3c(-c4ccncn4)n[nH]c3cc2[nH]1)c1ccccc1` [Example 57, (R)—N-(1-phenylethyl)-3-(pyrimidin-4-yl)-1,7-dihydroimidazo[4,5-f]indazole-6-carboxamide]: the figures for the IC50 at ERK-1 kinase and on ERK-2 kinase were 3.51 nM and 1.43 nM, respectively.

Turning to `C[C@@H](NC(=O)c1nc2cc3c(-c4ccncc4)n[nH]c3cc2[nH]1)c1ccc(F)c(Cl)c1` [Example 63, (R)—N-(1-(3-chloro-4-fluorophenyl)ethyl)-3-(pyridin-4-yl)-1,7-dihydroimidazo[4,5-f]indazole-6-carboxamide], the half-maximal inhibitory concentration (IC50) on ERK-1 kinase is 2.93 nM; at ERK-2 kinase, 2.88 nM.

As for `O=C(c1nc2cc3c(-c4ccncc4)n[nH]c3cc2[nH]1)N1C[C@@H]1c1ccccc1` [Example 65, (S)-(2-Phenylaziridin-1-yl)(3-(pyridin-4-yl)-1,7-dihydroimidazo[4,5-f]indazol-6-yl)methanone], the IC50 came out at 3.73 nM on ERK-1 kinase and 1.58 nM at ERK-2 kinase.

For the compound `C[C@@H](CNC(=O)c1nc2cc3c(-c4ccncc4)n[nH]c3cc2[nH]1)c1ccccc1` [Example 66, (R)—N-(2-phenylpropyl)-3-(pyridin-4-yl)-1,7-dihydroimidazo[4,5-f]indazole-6-carboxamide], the IC50 on ERK-1 kinase stood at 1.52 nM; on ERK-2 kinase, 0.83 nM.
